Laboratory results taken from US12492186B2, “Bicyclic heterocyclic compounds useful as IRAK4 inhibitors” (BRISTOL-MYERS SQUIBB COMPANY, priority 2019, dated 2025).

Columns and labels:
IRAK4 = IRAK4 (Homo sapiens (Human), UniProt Q9NWZ3); assay: IRAK4 Inhibition Assay; assay type: biochemical; conditions: ATP 500 μM; IRAK4 0.6 nM; 60 min room temperature; Caliper LABCHIP 3000
Description: The assays were performed in U-bottom 384-well plates. The final assay volume was 30 μL prepared from 15 μL additions of enzyme and substrates (fluoresceinated peptide and ATP) and test compounds in assay buffer (20 mM HEPES pH 7.2, 10 mM MgCl2, 0.015% Brij 35 and 4 mM DTT). The reaction was initiated by the combination of IRAK4 with substrates and test compounds. The reaction mixture was incubated at room temperature for 60 min. and terminated by adding 45 μL of 35 mM EDTA to each sample. The reaction mixture was analyzed on the Caliper LABCHIP® 3000 (Caliper, Hopkinton, MA) by electrophoretic separation of the fluorescent substrate and phosphorylated product. Inhibition data were calculated by comparison to no enzyme control reactions for 100% inhibition and vehicle-only reactions for 0% inhibition. The final concentrations of reagents in the assays are ATP, 500 μM; FL-IPTSPITTTYFFFKKK peptide 1.5 μM; IRAK4, 0.6 nM; and DMSO, 1.6%.

Human whole blood = assay: IRAK4 Whole Blood Assay (IL-6 levels after stimulation with TLR2 agonist lipoteichoic acid); assay type: cell-based; conditions: 10 μg/mL lipoteichoic acid, 5 hours
Description: Human whole blood containing the anti-coagulant ACD-A was plated in 384-well plate (25 μL/well) and incubated with compounds for 60 minutes at 37° C. in a 5% CO2 incubator. The blood was stimulated with a TLR2 agonist, 10 μg/mL final concentration of lipoteichoic acid (Invivogen, San Diego, CA) in 25 μL RPMI (Gibco) for 5 hours in a 5% CO2 incubator. At the end of the incubation, plates were centrifuged at 2300 rpm for 5 minutes. Supernatants were harvested and analyzed for IL-6 levels by Flow Cytometry beads assay (BD Biosciences, San Jose, CA).

Chain of IRAK4 (Q9NWZ3 whole entry, species assumed): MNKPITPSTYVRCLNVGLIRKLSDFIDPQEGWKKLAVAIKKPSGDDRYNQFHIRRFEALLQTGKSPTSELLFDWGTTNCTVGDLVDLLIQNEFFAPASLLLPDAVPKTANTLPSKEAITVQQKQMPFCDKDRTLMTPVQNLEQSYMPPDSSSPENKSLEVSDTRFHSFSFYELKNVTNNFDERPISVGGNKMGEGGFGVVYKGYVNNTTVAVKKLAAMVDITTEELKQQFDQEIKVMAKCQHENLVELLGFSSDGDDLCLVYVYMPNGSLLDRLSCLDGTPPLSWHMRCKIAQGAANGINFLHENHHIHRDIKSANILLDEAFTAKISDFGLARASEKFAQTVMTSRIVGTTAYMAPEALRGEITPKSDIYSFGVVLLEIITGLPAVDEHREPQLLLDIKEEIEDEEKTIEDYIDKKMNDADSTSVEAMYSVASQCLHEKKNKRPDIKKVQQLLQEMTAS

Structure (SMILES) | IC50 (IRAK4) | EC50 (Human whole blood)
CC(C)Nc1c(C(=O)N[C@H]2CC[C@H](N)CC2)cnc2ccc(-c3cn[nH]c3)cc12 [Example 23, N-((1r,4r)-4-aminocyclohexyl)-4-(isopropylamino)-6-(1H-pyrazol-4-yl)quinoline-3-carboxamide] | 7.2 nM | 1700 nM
CC(C)Nc1c(C(=O)NCCC2CC2)cnc2ccc(-c3cn[nH]c3)nc12 [Example 149, N-(2-cyclopropylethyl)-4-(isopropylamino)-6-(1H-pyrazol-4-yl)-1,5-naphthyridine-3-carboxamide] | 2.7 nM | 175 nM
CC(C)Nc1c(-c2cn(C3CCN(C)C3=O)nn2)cnc2ccc(-c3cn[nH]c3)cc12 (stereo not drawn) [Example 136, 3-(4-(4-(isopropylamino)-6-(1H-pyrazol-4-yl)quinolin-3-yl)-1H-1,2,3-triazol-1-yl)-1-methylpyrrolidin-2-one] | 11.4 nM | 5090 nM
CC(C)Nc1c(C(=O)NC2CCN(S(C)(=O)=O)CC2)cnc2ccc(-c3cn[nH]c3)cc12 [Example 79, 4-(isopropylamino)-N-(1-(methylsulfonyl)piperidin-4-yl)-6-(1H-pyrazol-4-yl) quinoline-3-carboxamide] | 5.7 nM | 618 nM
CC(C)Nc1c(C(=O)NC[C@@H](F)C(C)(C)O)cnc2ccc(-c3cncs3)cc12 [Example 7, (R)—N-(2-fluoro-3-hydroxy-3-methylbutyl)-4-(isopropylamino)-6-(thiazol-5-yl)quinoline-3-carboxamide] | 8.2 nM | 5710 nM
CC(C)Nc1c(C(=O)NC2CCN(Cc3ccncc3)CC2)cnc2ccc(-c3cn[nH]c3)cc12 [Example 78, 4-(isopropylamino)-6-(1H-pyrazol-4-yl)-N-(1-(pyridin-4-ylmethyl)piperidin-4-yl)quinoline-3-carboxamide] | 16.8 nM | 1360 nM
CC(=O)N1CCC(NC(=O)c2cnc3ccc(-c4cn[nH]c4)cc3c2NC(C)C)CC1 [Example 77, N-(1-acetylpiperidin-4-yl)-4-(isopropylamino)-6-(1H-pyrazol-4-yl)quinoline-3-carboxamide] | 9.9 nM | 788 nM
CC(C)Nc1c(-c2cn(C3CCNCC3)nn2)cnc2ccc(-c3cn[nH]c3)cc12 [Example 133, N-isopropyl-3-(1-(piperidin-4-yl)-1H-1,2,3-triazol-4-yl)-6-(1H-pyrazol-4-yl)quinolin-4-amine] | 2.9 nM | 779 nM
CC(C)Nc1c(C(=O)NCCC2CC2)cnc2ccc(-c3cn[nH]c3)cc12 [Example 51, N-(2-cyclopropylethyl)-4-(isopropylamino)-6-(1H-pyrazol-4-yl)quinoline-3-carboxamide] | 4.5 nM | 699 nM
CC(=O)N[C@H]1CC[C@H](NC(=O)c2cnc3ccc(-c4cn[nH]c4)cc3c2NC(C)C)CC1 [Example 24, N-((1r,4r)-4-acetamidocyclohexyl)-4-(isopropylamino)-6-(1H-pyrazol-4-yl)quinoline-3-carboxamide] | 7.7 nM | 584 nM
CC(C)Nc1c(C(=O)NCc2nnc[nH]2)cnc2ccc(-c3cn[nH]c3)cc12 [Example 22, N-((4H-1,2,4-triazol-3-yl)methyl)-4-(isopropylamino)-6-(1H-pyrazol-4-yl)quinoline-3-carboxamide] | 7.5 nM | 6450 nM
CC(C)Nc1c(-c2cn(CCCO)nn2)cnc2ccc(-c3cn[nH]c3)cc12 [Example 131, 3-(4-(4-(isopropylamino)-6-(1H-pyrazol-4-yl)quinolin-3-yl)-1H-1,2,3-triazol-1-yl)propan-1-ol] | 7.8 nM | 713 nM
O=C(NCCN1CCS(=O)(=O)CC1)c1cnc2ccc(-c3cn[nH]c3)cc2c1NC1CC1 [Example 117, 4-(cyclopropylamino)-N-(2-(1,1-dioxidothiomorpholino)ethyl)-6-(1H-pyrazol-4-yl)quinoline-3-carboxamide] | 4.9 nM | 5190 nM
CC(O)CCNC(=O)c1cnc2ccc(-c3cn[nH]c3)cc2c1NCC(F)F (stereo not drawn) [Example 65, 4-((2,2-difluoroethyl)amino)-N-(3-hydroxybutyl)-6-(1H-pyrazol-4-yl)quinoline-3-carboxamide] | – | 2200 nM
CC(=O)N[C@H]1CC[C@H](NC(=O)c2cnc3ccc(-c4cncs4)nc3c2NC(C)C)CC1 [Example 156, N-((1r,4r)-4-acetamidocyclohexyl)-4-(isopropylamino)-6-(thiazol-5-yl)-1,5-naphthyridine-3-carboxamide] | 4.3 nM | 662 nM
CC(C)Nc1c(C(=O)NCCCn2ccnc2)cnc2ccc(-c3cn[nH]c3)cc12 [Example 103, N-(3-(1H-imidazol-1-yl)propyl)-4-(isopropylamino)-6-(1H-pyrazol-4-yl)quinoline-3-carboxamide] | 11 nM | 2720 nM

Structure (SMILES) | IC50 (IRAK4) | EC50 (Human whole blood)
CC(C)Nc1c(C(=O)N[C@H]2CC[C@H](n3ccnn3)CC2)cnc2ccc(-c3cn[nH]c3)cc12 [Example 101, N-((1r,4r)-4-(1H-1,2,3-triazol-1-yl)cyclohexyl)-4-(isopropylamino)-6-(1H-pyrazol-4-yl)quinoline-3-carboxamide] | 4.1 nM | 447 nM
CC(C)Nc1c(C(=O)NCC2CCS(=O)(=O)C2)nnc2ccc(-c3cn[nH]c3)cc12 (stereo not drawn) [Example 159, N-((1,1-dioxidotetrahydrothiophen-3-yl)methyl)-4-(isopropylamino)-6-(1H-pyrazol-4-yl)cinnoline-3-carboxamide] | 4.7 nM | 556 nM
CC(C)Nc1c(-c2cc(C3CCCCN3)no2)cnc2ccc(-c3cn[nH]c3)cc12 (stereo not drawn) [Example 128, N-isopropyl-3-(3-(piperidin-2-yl)isoxazol-5-yl)-6-(1H-pyrazol-4-yl)quinolin-4-amine] | – | 758 nM
CNC(=O)CCNC(=O)c1cnc2ccc(-c3cn[nH]c3)cc2c1NCC(F)F [Example 66, 4-((2,2-difluoroethyl)amino)-N-(3-(methylamino)-3-oxopropyl)-6-(1H-pyrazol-4-yl)quinoline-3-carboxamide] | 60.7 nM | –
CC(C)(O)CCNC(=O)c1cnc2ccc(-c3cn[nH]c3)cc2c1NC1COC1 [Example 40, N-(3-hydroxy-3-methylbutyl)-4-(oxetan-3-ylamino)-6-(1H-pyrazol-4-yl)quinoline-3-carboxamide] | 33.5 nM | –
CC(C)Nc1c(C(=O)NC[C@@H](F)C(C)(C)O)cnc2ccc(-c3cccnc3)cc12 [Example 3, (R)—N-(2-fluoro-3-hydroxy-3-methylbutyl)-4-(isopropylamino)-6-(pyridin-3-yl) quinoline-3-carboxamide] | 46.2 nM | –
CNc1c(C(N)=O)cnc2ccc(-c3cncs3)cc12 [Example 111, 4-(methylamino)-6-(thiazol-5-yl)quinoline-3-carboxamide] | 1550 nM | –
CC(C)Nc1c(C(=O)NC2CCN(C(=O)CC(F)(F)F)CC2)cnc2ccc(-c3cn[nH]c3)cc12 [Example 83, 4-(isopropylamino)-6-(1H-pyrazol-4-yl)-N-(1-(3,3,3-trifluoropropanoyl)piperidin-4-yl)quinoline-3-carboxamide] | 24.5 nM | –
CC(C)(O)CCNC(=O)c1cnc2ccc(-c3cn[nH]c3)cc2c1NC1CC(F)(F)C1 [Example 52, 4-((3,3-difluorocyclobutyl)amino)-N-(3-hydroxy-3-methylbutyl)-6-(1H-pyrazol-4-yl)quinoline-3-carboxamide] | 23.9 nM | –
CC(C)Nc1c(C(=O)NC[C@@H](F)C(C)(C)O)cnc2ccc(-c3cccc(C#N)c3)cc12 [Example 6, (R)-6-(3-cyanophenyl)-N-(2-fluoro-3-hydroxy-3-methylbutyl)-4-(isopropylamino) quinoline-3-carboxamide] | 145 nM | –
O=C(NCCC(F)F)c1cnc2ccc(-c3cn[nH]c3)cc2c1NCC(F)F [Example 67, 4-((2,2-difluoroethyl)amino)-N-(3,3-difluoropropyl)-6-(1H-pyrazol-4-yl)quinoline-3-carboxamide] | 22.9 nM | –
CC(=O)NC1CC(NC(=O)c2cnc3ccc(-c4cn[nH]c4)cc3c2NC2CC(F)(F)C2)C1 (stereo not drawn) [Example 57, N-((1r,3r)-3-acetamidocyclobutyl)-4-((3,3-difluorocyclobutyl)amino)-6-(1H-pyrazol-4-yl)quinoline-3-carboxamide] | 22.6 nM | –
CC(C)Nc1c(C(=O)NCCC(C)(C)O)cnc2ccc(-c3ccc(F)nc3F)cc12 [Example 73, 6-(2,6-difluoropyridin-3-yl)-N-(3-hydroxy-3-methylbutyl)-4-(isopropylamino)quinoline-3-carboxamide] | 51.2 nM | –
CC(C)Cc1nc(-c2cnc3ccc(-c4cn[nH]c4)cc3c2NC(C)C)n[nH]1 [Example 124, 3-(5-isobutyl-1H-1,2,4-triazol-3-yl)-N-isopropyl-6-(1H-pyrazol-4-yl)quinolin-4-amine] | 107 nM | –
CC(C)(O)CCNC(=O)c1cnc2ccc(-c3cn[nH]c3)cc2c1NCC(F)F [Example 62, 4-((2,2-difluoroethyl)amino)-N-(3-hydroxy-3-methylbutyl)-6-(1H-pyrazol-4-yl)quinoline-3-carboxamide] | 22.3 nM | –
